From ChEMBL document CHEMBL3217589, “Spiro[[1]benzothiophen-4,4-piperidines] carba analogs of potent 1 ligands” (Medchemcomm, 2013)

Columns and labels:
[1] = Displacement of [3H]-di-o-tolylguanidine from sigma-2 receptor in rat liver membranes after 120 mins by scintillation counting analysis; format: cell membranes, Membrane
[2] = Selectivity ratio of Ki for rat liver membrane sigma-2 receptor to Ki for guinea pig brain cortex sigma-1 receptor
[3] = target: Sigma non-opioid intracellular receptor 1 (Cavia porcellus, UniProt Q60492); assay: Displacement of [3H]-(+)-pentazocine from sigma-1 receptor in guinea pig brain cortex after 120 mins by scintillation counting analysis; format: tissue-based, Cerebral cortex
[4] = target: Sigma non-opioid intracellular receptor 1 (Homo sapiens, UniProt Q99720); assay: Binding affinity to sigma-1 receptor (unknown origin)
Sequence of Sigma non-opioid intracellular receptor 1 (Homo sapiens, UniProt Q99720) (Q99720 whole entry): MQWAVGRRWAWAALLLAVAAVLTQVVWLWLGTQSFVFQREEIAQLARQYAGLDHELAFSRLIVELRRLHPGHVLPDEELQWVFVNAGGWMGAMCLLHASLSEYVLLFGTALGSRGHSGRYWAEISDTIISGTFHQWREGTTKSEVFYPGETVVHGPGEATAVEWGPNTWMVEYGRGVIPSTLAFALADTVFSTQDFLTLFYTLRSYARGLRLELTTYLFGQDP

Sequence of Sigma non-opioid intracellular receptor 1 (Cavia porcellus, UniProt Q60492) (Q60492 whole entry): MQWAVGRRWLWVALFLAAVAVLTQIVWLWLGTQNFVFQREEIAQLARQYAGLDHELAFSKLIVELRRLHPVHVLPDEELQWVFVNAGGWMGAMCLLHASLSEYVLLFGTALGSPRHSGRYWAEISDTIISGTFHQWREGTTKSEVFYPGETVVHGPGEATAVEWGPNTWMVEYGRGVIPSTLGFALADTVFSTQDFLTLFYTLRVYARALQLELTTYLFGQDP

SMILES | Ki [1] [nM] | Ratio Ki [2] | Ki [3] [nM] | Ki [4] [nM]
c1cc2c(s1)CCCC21CCN(CC2CCCCC2)CC1 | 23 | 5 | 4.3 | –
CCCCN1CCC2(CCCc3sccc32)CC1 | 48 | 8 | 6.3 | –
c1ccc(CN2CCC3(CCCc4sccc43)C2)cc1 (stereo not given) | 130 | 4 | 29 | –

Results, then the molecule that gave them:

Ki [1] [nM] | Ratio Ki [2] | Ki [3] [nM] | Ki [4] [nM] | SMILES
172 | 16 | 10.5 | – | c1ccc(CN2CCC3(CCCc4sccc43)CC2)cc1
– | – | – | 24 | CN(C)CCC1OCCc2c1cnn2-c1ccccc1 (stereo not given)
105 | 0.4 | 277 | – | c1ccc(CCN2CCC3(CCCc4sccc43)CC2)cc1
– | – | – | 2.9 | c1ccc(N2CCN(CCC3OCCc4c3cnn4-c3ccccc3)CC2)cc1 (stereo not given)
186 | 4 | 46 | – | c1ccc(CCCN2CCC3(CCCc4sccc43)CC2)cc1
